Data from US20080207533A1, “Pharmaceutical Compositions” (priority 2005, published 2008).
Structures can show the parent of a compound that is named as a salt.

Test: Degradation (hydrolysis) of Compound I after wet granulation with water
Type: physicochemical
Settings: granulation liquid deionized water; LOD value less than or equal to about 1% for the dried granulate
Protocol: Once blended, a granulation liquid, deionized water, is added for wet kneading. The impeller and chopper speeds are increased to setting 2 (e.g., 306 rpm and 500 rpm, respectively, for the impeller and chopper). The kneading is conducted at room temperature. After granulation, the moist granulates are dried in a fluid-bed dryer with an air inlet temperature of approximately 70° C. to obtain granulates. The moist granulates are dried such that there is a LOD value below 1.0%. The granulates are subsequently sieved using a screen with a mesh size of 1.25 mm or 0.8 mm. As mentioned above, Compound I is a salt of an ester which is potentially sensitive to hydrolysis in the presence of water.

SMILES: CC(C)[C@H](N)C(=O)O[C@@H]1[C@@H](CO)O[C@@H](n2ccc(N)nc2=O)[C@]1(C)O [Compound I, dihydrochloride salt]
- degradation, e.g., due to hydrolysis, after wet granulation: does not result in an increase in degradation
